This is an account of results in patent US12605346B2, “Composition containing curcumin compound, and method for producing same” (THERABIOPHARMA INC., priority 2020, dated 2026).

The nature of data set [1]: Plasma curcumin concentration (AUC and Cmax) after administration to rats. The data set is classed as in vivo.
Experimental: The plasma curcumin concentration was measured by the following method using heparin plasma obtained by collecting about 0.2 mL of blood from the jugular vein of test animals (rats) without anesthesia at 0.25 hours, 0.5 hours, 1 hour, 2 hours, 4 hours, and/or 6 hours after start of administration.
To 20 μL of the collected plasma, 100 μL of 0.1 M acetate buffer (pH 5.0) and 10 μL of β-glucuronidase solution (about 68,000 units/mL) were added. The mixture was kept at 37° C. for 1 hour. Subsequently, 10 μL of 50% (v/v) methanol containing 20 ng/mL of Mepronil, an internal standard, and 0.5 mL of chloroform were added. The mixture was stirred with a vortex mixer for 1 minute and then mixed with an ultrasonic generator for 15 minutes to perform an extraction process. The extraction process liquid was separated into a chloroform layer and an aqueous layer by centrifugation (13,000×g, 5 min, room temperature). The separated aqueous layer was further subjected to an extraction process in which extraction was performed by adding chloroform in the same manner as described above. Next, the chloroform layer was collected and dried to solid by distilling the solvent off using a vacuum centrifugal concentrator, and 100 μL of 50% (v/v) methanol was added thereto, followed by centrifugation (13,000×g, 5 min, room temperature). The supernatant was then collected.
The plasma curcumin concentration was measured by analyzing 2 μL of the prepared supernatant using LC-MS/MS (available from Bruker). […]
The calibration curve used to quantitatively determine the curcumin content in the sample was obtained by performing measurement under the same conditions as described above using various standard solutions (curcumin concentration: 0.9 to 225 ng/mL) prepared by adding 10 μL of a 50% ethanol solution containing 20 ng/mL of Mepronil to 90 μL of a 50% (v/v) methanol solution (curcumin standard solution) containing 1.0, 2.0, 3.9, 7.8, 15.6, 31.3, 62.5, 125, or 250 ng/mL of curcumin.
The conditions of data set [2]: normal conditions (temperature 20° C. to 35° C., humidity 40% to 70%) till 6 months; cited from earlier work.

Consider `COc1cc(/C=C/C(=O)/C=C(O)/C=C/c2ccc(O)c(OC)c2)ccc1O` [Comparative Example 2, curcumin], for which the Cmax in data set [1] (rat, oral, plasma curcumin after β-glucuronidase treatment) turned out to be 85 ng/mL. In data set [1] (rat, oral, plasma curcumin after β-glucuronidase treatment, 0 to 6 hrs), the AUC is 292 ng·h/mL. The “Cmax relative to Comparative Example 1 (value in parentheses)” value in data set [1] (ratio to commercial curcumin formulation (Comparative Example 1 = 1.0)) came to 0.84 times.

In the case of `COc1cc(/C=C/C(=O)/C=C(O)/C=C/c2ccc(O)c(OC)c2)ccc1O` [amorphous curcumin, curcumin], the “Storage stability of sample stored in a container” value in data set [2] is “generally stable”.
